Each structure is given as a SMILES string.

This note sets out measurements from US8110687B2, “Bicyclic compounds with kinase inhibitory activity” (Millennium Pharmaceuticals, Inc., priority 2005, dated 2012).

The assay concerns phospho-ERK formation (Raf kinase activity) in A375 cells. Kind of assay: Phospho-ERK ELISA assay. The settings on record: Homo sapiens, A-375, 3 h, 3 hours with inhibitor, read-out: IC50, inhibition of the formation of phospho-ERK. It counts as cell-based. As for the experimental part:
Inhibition of Raf kinase activity in whole cell systems can be assessed by determining the decrease in phosphorylation of Raf kinase substrates. Any known Raf kinase substrate can be used to measure inhibition of Raf kinase activity in a whole cell system.
Medium was removed, and cells were incubated with Raf kinase inhibitors for 3 hours at 37° C. Medium was removed, and cells were fixed with 4% paraformaldehyde for 15 minutes at room temperature.
Methanol was added for 15 min. Cells were removed and blocked with 10% sheep serum and 1% BSA in PBS overnight at 4° C. Cells were incubated with anti-p44/42MAPK antibody (1:100, Cell Signaling Technologies, #9101L) (20 μL/well) for one hour at room temperature. After washing with PBS three times, cells were stained with anti-rabbit horseradish peroxidase-linked antibody from donkey (1:100, Amersham Bioscience #NA934V) for 1 hour at room temperature. Cells were washed three times with 0.5% Tween-20 in PBS and twice with PBS. 3,3′, 5,5′-Tetramethylbenzidine (TMB) liquid substrate system (Sigma, #T8665) (50 μL/well) was added, and cells were incubated for 30-45 minutes at room temperature. Optical density was read at 650 nm. Cells were then washed 3-5 times with PBS to remove color solution. Results were normalized for the protein content in each well using a BCA protein assay kit (Pierce).
A general note: In an ELISA, binding on a coated surface is turned into a signal by an enzyme label.
What is called IC50 is the concentration at which inhibition is half-maximal. With `CN1Cc2ccc(Oc3ccnc(C4=NCCN4)c3)cc2CC1C(=O)Nc1ccc(Cl)c(C(F)(F)F)c1` (stereo not drawn) [Compound I-11, N-[4-Chloro-3-(trifluoromethyl)phenyl]-6-{[2-(4,5-dihydro-1H-imidazol-2-yl)pyridin-4-yl]oxy}-2-methyl-1,2,3,4-tetrahydroisoquinoline-3-carboxamide], the IC50 was at most 25 µM.

For `O=C(Nc1ccc(Cl)c(C(F)(F)F)c1)C1CCc2cccc(Oc3ccnc(C4=NCCN4)c3)c2C1` (stereo not drawn) [Compound I-21, N-[4-chloro-3-(trifluoromethyl)phenyl]-8-{[2-(4,5-dihydro-1H-imidazol-2-yl)pyridin-4-yl]oxy}-1,2,3,4-tetrahydronaphthalene-2-carboxamide], the IC50 is at most 25 µM.

As for `CNC(=O)c1cc(Oc2ccc3c(c2)CC(C(=O)Nc2cccc(C(C)(C)C)c2)CC3)ccn1` (stereo not drawn) [Compound I-23, 4-[(7-{[(3-tert-butylphenyl)amino]carbonyl}-5,6,7,8-tetrahydronaphthalen-2-yl)oxy]-N-methylpyridine-2-carboxamide], the IC50 is at most 25 µM.

Turning to `CNC(=O)c1cc(Oc2ccc3c(c2)CC(C(=O)Nc2ccc(CN)c(C(F)(F)F)c2)CC3)ccn1` (stereo not drawn) [Compound I-28, 4-{[7-({[4-(aminomethyl)-3-(trifluoromethyl)phenyl]amino}carbonyl)-5,6,7,8-tetrahydronaphthalen-2-yl]oxy}-N-methylpyridine-2-carboxamide], the 50% inhibitory concentration (IC50) is at most 25 µM.

`CNC(=O)c1cc(Oc2ccc3c(c2)CC(C(=O)Nc2ccc(CCN)cc2)CC3)ccn1` (stereo not drawn) [Compound I-29, 4-{[7-({[4-(2-aminoethyl)phenyl]amino}carbonyl)-5,6,7,8-tetrahydronaphthalen-2-yl]oxy}-N-methylpyridine-2-carboxamide]: the IC50 is at most 25 µM.

On to `O=C(Nc1ccc(Cl)c(C(F)(F)F)c1)c1cc2cc(Oc3ccnc(C4=NCCN4)c3)ccc2cn1` [Compound I-35, N-[4-chloro-3-(trifluoromethyl)phenyl]-6-{[2-(4,5-dihydro-1H-imidazol-2-yl)pyridin-4-yl]oxy}isoquinoline-3-carboxamide], for which the 50% inhibitory concentration (IC50) is at most 25 µM.

Take `CNC(=O)c1cc(Oc2ccc3c(c2)CC(C(=O)Nc2ccc(CN)cc2)CC3)ccn1` (stereo not drawn) [Compound I-42, 4-{[7-({[4-(aminomethyl)phenyl]amino}carbonyl)-5,6,7,8-tetrahydronaphthalen-2-yl]oxy}-N-methylpyridine-2-carboxamide]: the concentration for half-maximal inhibition (IC50) is at most 25 µM.

Take `O=C(Nc1ccc(Cl)c(C(F)(F)F)c1)c1ccc2ccc(Oc3ccnc(C4=NCCN4)c3)cc2n1` [Compound I-45, N-[4-chloro-3-(trifluoromethyl)phenyl]-7-{[2-(4,5-dihydro-1H-imidazol-2-yl)pyridin-4-yl]oxy}quinoline-2-carboxamide]: the 50% inhibitory concentration (IC50) is at most 25 µM.

`O=C(Nc1ccc(Cl)c(C(F)(F)F)c1)c1ccc2ccc(Oc3ccnc(C4=NCCN4)c3)cc2c1` [Compound I-46, N-[4-chloro-3-(trifluoromethyl)phenyl]-7-{[2-(4,5-dihydro-1H-imidazol-2-yl)pyridin-4-yl]oxy}-2-naphthamide]: the 50% inhibitory concentration (IC50) was at most 25 µM.

For the compound `O=C(Nc1cc(OC2CCNCC2)cc(C(F)(F)F)c1)c1ccc2ccc(Oc3ccnc(C4=NCCN4)c3)cc2c1` [Compound I-48, 7-{[2-(4,5-dihydro-1H-imidazol-2-yl)pyridin-4-yl]oxy}-N-[3-(piperidin-4-yloxy)-5-(trifluoromethyl)phenyl]-2-naphthamide], the IC50 was at most 25 µM.

Take `CC(C)(C)c1cccc(NC(=O)c2ccc3ccc(Oc4ccnc(C5=NCCN5)c4)cc3n2)c1` [Compound I-50, N-(3-tert-butylphenyl)-7-{[2-(4,5-dihydro-1H-imidazol-2-yl)pyridin-4-yl]oxy}quinoline-2-carboxamide]: the half-maximal inhibitory concentration (IC50) is at most 25 µM.

Turning to `CNC(=O)c1cc(Oc2ccc3c(c2)CC(C(=O)Nc2cccc(CN)c2)CC3)ccn1` (stereo not drawn) [Compound I-51, 4-{[7-({[3-(aminomethyl)phenyl]amino}carbonyl)-5,6,7,8-tetrahydronaphthalen-2-yl]oxy}-N-methylpyridine-2-carboxamide], the half-inhibitory concentration (IC50) was at most 25 µM.

As for `O=C(Nc1ccc(Cl)c(C(F)(F)F)c1)C1Cc2cc(Oc3ccnc(C4=NCCN4)c3)ccc2CN1` (stereo not drawn) [Compound I-54, N-[4-chloro-3-(trifluoromethyl)phenyl]-6-{[2-(4,5-dihydro-1H-imidazol-2-yl)pyridin-4-yl]oxy}-1,2,3,4-tetrahydroisoquinoline-3-carboxamide], the IC50 is at most 25 µM.

In the case of `CC(C)(C)c1cccc(NC(=O)c2ccc3ccc(Oc4ccnc(C(=N)N5CCCC5)c4)cc3c2)c1` [Compound I-93, N-(3-tert-butylphenyl)-7-({2-[imino(pyrrolidin-1-yl)methyl]pyridin-4-yl}oxy)-2-naphthamide], the IC50 is at most 25 µM.

As to `CC(C)(C)c1cccc(NC(=O)c2ccc3ccc(Oc4ccnc(C(=N)N5CCOCC5)c4)cc3c2)c1` [Compound I-99, N-(3-tert-butylphenyl)-7-({2-[imino(morpholin-4-yl)methyl]pyridin-4-yl}oxy)-2-naphthamide], the IC50 was at most 25 µM.

In the case of `CNC(=O)c1cc(Oc2ccc3c(c2)CC(C(=O)Nc2ccc(CN4CCCC4)c(C(F)(F)F)c2)CC3)ccn1` (stereo not drawn) [Compound I-129, N-methyl-4-{[7-({[4-(pyrrolidin-1-ylmethyl)-3-(trifluoromethyl)phenyl]amino}carbonyl)-5,6,7,8-tetrahydronaphthalen-2-yl]oxy}pyridine-2-carboxamide], the IC50 was at most 25 µM.

Regarding `CN(C)CC(=O)Nc1cc(Oc2ccc3ccc(C(=O)Nc4ccc(Cl)c(C(F)(F)F)c4)cc3c2)ccn1` [Compound I-138, N-[4-chloro-3-(trifluoromethyl)phenyl]-7-[(2-{[(dimethylamino)acetyl]amino}pyridin-4-yl)oxy]-2-naphthamide], the IC50 was at most 25 µM.

Consider `Nc1cc(Oc2ccc3ccc(C(=O)Nc4cc(OCCN5CCCC5)cc(C(F)(F)F)c4)cc3c2)ccn1` [Compound I-142, 7-[(2-aminopyridin-4-yl)oxy]-N-[3-(2-pyrrolidin-1-ylethoxy)-5-(trifluoromethyl)phenyl]-2-naphthamide], for which the IC50 was at most 25 µM.

Consider `CC(C)(C)c1cccc(NC(=O)C2CCc3ccc(Oc4ccnc(-c5nc(C(=O)O)c[nH]5)c4)cc3C2)c1` (stereo not drawn) [Compound I-155, 2-{4-[(7-{[(3-tert-Butylphenyl)amino]carbonyl}-5,6,7,8-tetrahydronaphthalen-2-yl)oxy]pyridin-2-yl}-1H-imidazole-4-carboxylic acid], for which the IC50 was at most 25 µM.

With `N#Cc1ccc(NC(=O)c2ccc3ccc(Oc4ccnc(N)c4)cc3c2)cc1C(F)(F)F` [Compound I-158, 7-[(2-aminopyridin-4-yl)oxy]-N-[4-cyano-3-(trifluoromethyl)phenyl]-2-naphthamide], the IC50 was at most 25 µM.

As for `CNC(=O)c1cc(Oc2ccc3ncc(C(=O)Nc4ccc(CN)c(C(F)(F)F)c4)cc3c2)ccn1` [Compound I-161, N-[4-(aminomethyl)-3-(trifluoromethyl)phenyl]-6-({2-[(methylamino)carbonyl]pyridin-4-yl}oxy)quinoline-3-carboxamide], the IC50 was at most 25 µM.

Regarding `Nc1cc(Oc2ccc3ccc(C(=O)Nc4ccc(Cl)c(C(F)(F)F)c4)cc3c2)ccn1` [Compound I-162, 7-[(2-aminopyridin-4-yl)oxy]-N-[4-chloro-3-(trifluoromethyl)phenyl]-2-naphthamide], the IC50 is at most 25 µM.

Turning to `COC(=O)NCc1cc(Oc2ccc3c(c2)CC(C(=O)Nc2cc(CN)cc(C(F)(F)F)c2)CC3)ccn1` (stereo not drawn) [Compound I-192, methyl [(4-{[7-({[3-(aminomethyl)-5-(trifluoromethyl)phenyl]amino}carbonyl)-5,6,7,8-tetrahydronaphthalen-2-yl]oxy}pyridin-2-yl)methyl]carbamate], the half-inhibitory concentration (IC50) is at most 25 µM.

Take `CC(C)(C)c1cccc(NC(=O)C2CCc3ccc(Oc4ccnc(C(=N)N5CCCC5)c4)cc3C2)c1` (stereo not drawn) [Compound I-194, N-(3-tert-butylphenyl)-7-({2-[imino(pyrrolidin-1-yl)methyl]pyridin-4-yl}oxy)-1,2,3,4-tetraydronaphthalene-2-carboxamide]: the IC50 is at most 25 µM.

`CC(=O)NCc1cc(Oc2ccc3c(c2)CC(C(=O)Nc2cc(CN)cc(C(F)(F)F)c2)CC3)ccn1` (stereo not drawn) [Compound I-203, 7-({2-[(acetylamino)methyl]pyridin-4-yl}oxy)-N-[3-(aminomethyl)-5-(trifluoromethyl)phenyl]-1,2,3,4-tetrahydronaphthalene-2-carboxamide]: the half-maximal inhibitory concentration (IC50) was at most 25 µM.

For the compound `NCc1cc(NC(=O)C2CCc3ccc(Oc4ccnc(-n5ccnc5)c4)cc3C2)cc(C(F)(F)F)c1` (stereo not drawn) [Compound I-205, N-[3-(aminomethyl)-5-(trifluoromethyl)phenyl]-7-{[2-(1H-imidazol-1-yl)pyridin-4-yl]oxy}-1,2,3,4-tetrahydronaphthalene-2-carboxamide], the 50% inhibitory concentration (IC50) was at most 25 µM.

On to `NCc1cc(NC(=O)C2CCc3ccc(Oc4ccnc(-c5cnco5)c4)cc3C2)cc(C(F)(F)F)c1` (stereo not drawn) [Compound I-210, N-[3-(aminomethyl)-5-(trifluoromethyl)phenyl]-7-{[2-(1,3-oxazol-5-yl)pyridin-4-yl]oxy}-1,2,3,4-tetrahydronaphthalene-2-carboxamide], for which the IC50 is at most 25 µM.
